Target: T1, recombinant aminopeptidase A (UniProt P16406)
T1 sequence (P16406 1-945): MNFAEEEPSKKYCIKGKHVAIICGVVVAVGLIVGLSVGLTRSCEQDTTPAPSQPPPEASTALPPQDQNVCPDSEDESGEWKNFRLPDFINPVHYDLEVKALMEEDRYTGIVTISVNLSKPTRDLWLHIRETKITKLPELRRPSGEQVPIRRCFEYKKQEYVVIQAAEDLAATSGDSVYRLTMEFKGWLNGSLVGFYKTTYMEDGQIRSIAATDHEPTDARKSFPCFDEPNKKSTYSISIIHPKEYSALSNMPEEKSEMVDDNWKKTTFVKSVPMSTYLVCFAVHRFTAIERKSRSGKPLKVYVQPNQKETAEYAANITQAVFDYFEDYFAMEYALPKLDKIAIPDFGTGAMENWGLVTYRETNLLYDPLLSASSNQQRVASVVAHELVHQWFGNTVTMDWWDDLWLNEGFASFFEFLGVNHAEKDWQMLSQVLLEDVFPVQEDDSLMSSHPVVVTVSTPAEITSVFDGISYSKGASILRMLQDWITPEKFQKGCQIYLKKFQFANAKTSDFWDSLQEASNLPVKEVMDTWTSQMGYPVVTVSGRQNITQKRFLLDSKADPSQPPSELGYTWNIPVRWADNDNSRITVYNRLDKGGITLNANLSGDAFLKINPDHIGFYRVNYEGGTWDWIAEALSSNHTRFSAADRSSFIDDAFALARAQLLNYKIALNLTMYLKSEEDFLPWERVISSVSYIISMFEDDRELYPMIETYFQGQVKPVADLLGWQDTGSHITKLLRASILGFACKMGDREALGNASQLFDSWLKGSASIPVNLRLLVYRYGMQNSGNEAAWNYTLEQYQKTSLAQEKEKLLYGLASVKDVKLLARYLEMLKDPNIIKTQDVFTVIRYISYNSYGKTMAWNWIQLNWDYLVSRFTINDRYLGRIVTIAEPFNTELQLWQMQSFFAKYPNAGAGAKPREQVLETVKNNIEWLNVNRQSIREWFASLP
Test: Determination of the inhibition constants with respect to APA (GluβNa hydrolysis, microplate assay)
Type: biochemical
Details: for Ki: recombinant APA, 200 μM GluβNa, pH 7.4 Tris-HCl, 4 mM CaCl2, 37° C.
Protocol: The compounds 5 were tested, in vitro, on recombinant aminopeptidase A in order to determine their affinity for APA.
The assaying of APA activity is based on the protocol of Goldberg, adapted to the microplate assay scale (Pro Bind® 3915) (Chauvel et al., J. Med. Chem., 1994, 37, 1339-1346).
In vitro, in the presence of calcium ions, APA hydrolyzes α-L-glutamyl-β-naphthylamide (gluβNa) to glutamate and β-naphthylamine (βNa). A diazotization reaction in an acidic medium makes it possible to visualize the β-naphthylamine by formation of a violet-colored complex: spectrophotometric measurement then makes it possible to determine the amount of complex formed and, by reference to a standard curve produced with increasing concentrations of β-naphthylamine, to deduce therefrom the enzymatic activity of the sample.
The GluβNa substrate and the β-naphthylamine (Bachem) are solubilized in dimethyl sulfoxide and 0.1N HCl, respectively, and conserved at −20° C. at a concentration of 10^−2M. The diazotization reaction is carried out in the presence of sodium nitrite (87 mM), of ammonium sulfamate (130 mM) and of N-(1-naphthyl)ethylenediamine dihydrochloride (23 mM).
The reaction takes place at pH 7.4 in 50 mM Tris-HCl buffer, in the presence of calcium (4 mM CaCl2); the sample to be assayed is incubated at 37° C. in the presence of a substrate (200 μM GluβNa) and in the presence or absence of various concentrations of the inhibitor to be tested, in a final volume of 100 μl. The reaction is stopped by the addition of 10 μl of 3N HCl. A standard curve for β-naphthylamine in an acidic medium (addition of 10 μl of 0.1N HCl) is produced in parallel.
The following are added to each well:
25 μl of sodium nitrite (mix, wait 5 min at ambient temperature),
50 μl of ammonium sulfamate (stir, wait 5 min at ambient temperature), then
25 μl of 23 mM N-(1-naphthyl)ethylenediamine dihydrochloride (mix, wait for the violet color to stabilize for approximately 30 min at 37° C.).
The absorbance is subsequently measured at 540 nm.
The compound EC 33 ((S)-3-amino-4-mercaptobutylsulfonic acid) described in application WO 99/36066), a monomer of the compound RB 150 (4,4′-dithiobis-3-aminobutane-1-sulfonic acid) described in application WO 2004/007441, was used as a reference compound.

Ki | APA-inhibiting activity greater than that of the reference compound (EC 33) by a factor (relative to EC 33) | Structure (SMILES) | inhibitory activity compared with the reference compound (EC 33) (relative to EC 33)
> 100000 nM |  | CC(S)C(N)CCS(=O)(=O)O (stereo not shown) [Compound 5a, 3-Amino-4-mercaptopentane-1-sulfonic acid] | 
8000 nM |  | NC(CCS(=O)(=O)O)C(S)c1ccccc1 (stereo not shown) [Compound 5b, 3-Amino-4-mercapto-4-phenylbutane-1-sulfonic acid] | 
4000 nM |  | CC(C)CC(S)C(N)CCS(=O)(=O)O (stereo not shown) [Compound 5c, 3-Amino-4-mercapto-6-methylheptane-1-sulfonic acid] | 
380 nM |  | NC(CCS(=O)(=O)O)C(S)Cc1ccccc1 (stereo not shown) [Compound 5d, 3-Amino-4-mercapto-5-phenylpentane-1-sulfonic acid] | of the same order as or greater than that of the reference compound
1920 nM |  | N[C@H](CCS(=O)(=O)O)[C@@H](S)CCc1ccccc1 [Compound 5e1, (3R,4S)-3-Amino-4-mercapto-6-phenylhexane-1-sulfonic acid] | 
30 nM | 10 | N[C@@H](CCS(=O)(=O)O)[C@@H](S)CCc1ccccc1 [Compound 5e2, (3S,4S)-3-Amino-4-mercapto-6-phenylhexane-1-sulfonic acid] | 
1040 nM |  | N[C@@H](CCS(=O)(=O)O)[C@H](S)CCc1ccccc1 [Compound 5e3, (3S,4R)-3-Amino-4-mercapto-6-phenylhexane-1-sulfonic acid] | 
840 nM |  | N[C@H](CCS(=O)(=O)O)[C@H](S)CCc1ccccc1 [Compound 5e4, (3R,4R)-3-Amino-4-mercapto-6-phenylhexane-1-sulfonic acid] | 
80 nM |  | NC(CCS(=O)(=O)O)C(S)CCc1ccccc1 (stereo not shown) [Compound 5e, 3-Amino-4-mercapto-6-phenylhexane-1-sulfonic acid] | of the same order as or greater than that of the reference compound
92 nM |  | COc1ccc(CCC(S)C(N)CCS(=O)(=O)O)cc1 (stereo not shown) [Compound 5f, 3-Amino-4-mercapto-6-(4-methoxyphenyl)hexane-1-sulfonic acid] | of the same order as or greater than that of the reference compound
96 nM |  | COc1ccccc1CCC(S)C(N)CCS(=O)(=O)O (stereo not shown) [Compound 5g, 3-Amino-4-mercapto-6-(2-methoxyphenyl)hexane-1-sulfonic acid] | of the same order as or greater than that of the reference compound
110 nM |  | NC(CCS(=O)(=O)O)C(S)CCc1ccc(Br)cc1 (stereo not shown) [Compound 5h, 3-Amino-4-mercapto-6-(4-bromophenyl)hexane-1-sulfonic acid] | of the same order as or greater than that of the reference compound
304 nM |  | N[C@H](CS)CCS(=O)(=O)O [EC 33, (S)-3-amino-4-mercaptobutylsulfonic acid, reference compound] | 

Source: patent publication US7582797B2, “Derivatives of 4,4′-dithiobis-(3-aminobutane-1-sulfonates) and compositions comprising the same” (Institute National de la Sante et de la Recherche Medicale …, priority 2003, dated 2009)
